Assay results from US20260250636A1, “A METHOD FOR PRODUCING A BIOENGINEERED MAMMAL INDUCED PLURIPOTENT STEM CELL-DERIVED CARDIAC ORGANOID” (INSTITUT NATIONAL DE LA SANTÉ ET DE LA RECHERCHE MÉDICALE, priority 2022, published 2026).

Assays:
Type in all cases: cell-based, human
[1] = tested on: c-met cardiac organoids; assay: OCR/ECAR and energy phenotype (Seahorse XFp) under cobalt chloride-mimicked hypoxia
Description: Cardiac organoids cultured for 3-4 months in 96 wells were transferred randomly to XFp mini plates (1-6 organoids/well, 300 to 1100 μm in diameter) (Seahorse, Agilent). The cardiac culture medium was treated with 200 μM CoCl2 (sigma) concentration for 24 hours. To evaluate the effects of HGF stimulation and c-met inhibition we have used respectively HGF at 50 ng/ml (R&D Systems) and SU11274 at […] (Sigma) under hypoxia. OCR, ECAR and energy phenotype test were all measured using a Seahorse XFp analyzer (Seahorse, Agilent). On the day of testing, cells were incubated in XF assay medium for 1 hr at 37° C. in non-CO2 incubator before measurement. Cell energy phenotype kit was used with port A containing the FCCP/oligomycin stressor mix at 2.0/1.0 μM (final well concentration). OCR and ECAR were normalized to the cell numbers of each wells. Cells were stained with DAPI and calculated from Leica confocal microscope images.

[2] = tested on: c-met cardiac organoids; assay: Cobalt chloride-mimicked hypoxia, proBNP and caspase-3 immunostaining; conditions: 200 μM CoCl2 hypoxia 24 h, n=8, normalized by DAPI fluorescence intensity
Description: (§1) Cardiac organoids cultured on 24 or 96-well culture plates were washed with phosphate-buffered saline (PBS), fixed with 4% paraformaldehyde in PBS for 60 min, permeabilized with 0.2% Triton X-100 (Sigma) in PBS and blocked 10% serum. Primary antibodies were diluted in PBS 10% serum at the following concentrations: phospho-Met; 1:100 (Cell Signaling Technologies), phospho-STAT3; 1:200 (Cell Signaling Technologies), Sarcomeric Alpha Actinin; 1:200 (Abcam), MLC-2A; 1:100 (Synaptic Systems), MLC-2V; 1:100 (Synaptic Systems), Cardiac troponin T; 1:100 (Abcam), CD31; 1:100 (Abcam), Caspase-3; 1:100 (Cell Signaling Technologies), ProBNP; 1:100 (Abcam), and then washed three times in PBS. The samples were incubated with secondary antibodies in antibody dilution buffer, then washed in PBS. Nuclei were labeled with DAPI mounting medium. The negative control performed a secondary antibody only (data not shown). Visualization and capture were realized with a Leica confocal microscope and LAS AF software.
(§2) Cardiac organoids cultured for 3-4 months in 96 wells were transferred randomly to XFp mini plates (1-6 organoids/well, 300 to 1100 μm in diameter) (Seahorse, Agilent). The cardiac culture medium was treated with 200 μM CoCl2 (sigma) concentration for 24 hours. To evaluate the effects of HGF stimulation and c-met inhibition we have used respectively HGF at 50 ng/ml (R&D Systems) and SU11274 at 5 M (Sigma) under hypoxia.

[3] = tested on: control cardiac organoids; assay: as above; conditions: 200 μM CoCl2 hypoxia 24 h, n=5, normalized by DAPI fluorescence intensity
Description: as §1, §2

[4] = tested on: control cardiac organoids; assay: OCR/ECAR and energy phenotype (Seahorse XFp) under cobalt chloride-mimicked hypoxia; conditions: after CoCl2 hypoxia 24 h; control group as compared to c-met group
Description: as §2
OCR, ECAR and energy phenotype test were all measured using a Seahorse XFp analyzer (Seahorse, Agilent). On the day of testing, cells were incubated in XF assay medium for 1 hr at 37° C. in non-CO2 incubator before measurement. Cell energy phenotype kit was used with port A containing the FCCP/oligomycin stressor mix at 2.0/1.0 μM (final well concentration). OCR and ECAR were normalized to the cell numbers of each wells. Cells were stained with DAPI and calculated from Leica confocal microscope images.

| SMILES | glycolysis activity at the baseline (ECAR) ([1]; c-met organoids, CoCl2 + SU11274 24 h, compared with HGF-treated (50 ng/ml) control organoids) | caspase-3+ cells intensity [2] | proBNP+ cells intensity [2] | caspase-3+ cells intensity [3] | proBNP+ cells intensity [3] | glycolysis activity (ECAR) [4] | energy phenotype (OCR versus ECAR) ([1]; after CoCl2 hypoxia 24 h, c-met organoids versus control) |
| --- | --- | --- | --- | --- | --- | --- | --- |
| Cc1[nH]c(/C=C2\C(=O)Nc3ccc(S(=O)(=O)N(C)c4cccc(Cl)c4)cc32)c(C)c1C(=O)N1CCN(C)CC1 [SU11274] | significantly decreased | – | – | – | – | – | – |
| [Cl][Co][Cl] [cobalt, cobalt chloride] | – | 0.34±0.16 | 0.73±1.4 | 0.61±0.11 | 0.78±0.16 | decreased | more energetic than control |
